As usually defined, the IC50 is the point on the concentration scale where inhibition reaches its midpoint.

The values that follow come from ChEMBL document CHEMBL4665882, “Allosteric kidney-type glutaminase (GLS) inhibitors with a mercaptoethyl linker” (Bioorg Med Chem, 2020).

Data set [1] addresses T1, Glutaminase kidney isoform, mitochondrial (Homo sapiens, UniProt O94925).
T1 sequence (O94925 whole entry): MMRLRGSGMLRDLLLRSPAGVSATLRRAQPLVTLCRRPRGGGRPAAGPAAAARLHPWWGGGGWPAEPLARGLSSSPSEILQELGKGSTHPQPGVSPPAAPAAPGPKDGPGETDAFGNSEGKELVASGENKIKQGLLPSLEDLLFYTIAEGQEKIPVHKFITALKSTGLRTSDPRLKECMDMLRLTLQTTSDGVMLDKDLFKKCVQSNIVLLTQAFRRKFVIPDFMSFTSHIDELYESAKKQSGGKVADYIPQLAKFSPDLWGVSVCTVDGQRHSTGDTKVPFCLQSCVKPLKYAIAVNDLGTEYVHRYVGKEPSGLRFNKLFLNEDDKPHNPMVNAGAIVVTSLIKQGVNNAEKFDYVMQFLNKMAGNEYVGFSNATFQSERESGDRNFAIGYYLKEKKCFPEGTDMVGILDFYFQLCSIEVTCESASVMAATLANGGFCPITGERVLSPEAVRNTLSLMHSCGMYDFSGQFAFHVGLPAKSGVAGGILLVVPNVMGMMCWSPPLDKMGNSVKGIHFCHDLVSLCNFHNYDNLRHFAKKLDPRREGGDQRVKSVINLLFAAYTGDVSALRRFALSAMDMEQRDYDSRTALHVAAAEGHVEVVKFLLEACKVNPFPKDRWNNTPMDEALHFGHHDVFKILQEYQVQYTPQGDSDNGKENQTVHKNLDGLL
As to the kind of experiment: Allosteric inhibition of human kidney glutaminase using [3H]-Glutamine as substrate in presence of inhibitor incubated for 45 mins by Perkin Elmer based assay.

The nature of data set [2]: Inhibition of human recombinant glutaminase assessed as reduction in glutamate production in presence of NADPH-dependent glutamate dehydrogenase preincubated 60 mins by coupled biochemical assay.
Data set [3] in a line: Aqueous solubility of compound in PBS 7.4 at 5 mg/ml incubated for 24 hrs by LC-MS-based shake-flask method. Type of data set: physicochemical. The settings on record: buffer, pH 7.4, 24 h.
Data set [4] can be described thus: Inhibition of glutaminase (unknown origin) preincubated for 60 mins. Also on record: species or system Homo sapiens.
Data set [5] can be described thus: Metabolic stability in mouse liver microsomes assessed as compound remaining after 60 mins incubation in presence of NADPH by LC-MS/MS analysis. Type of data set: ADME, Microsome. The settings on record: 1 h.

Some results are limits rather than exact numbers.

Regarding `O=C(Cc1ccccc1)Nc1nnc(CCSc2nnc(NC(=O)Cc3ccccn3)s2)s1`, in data set [1], the IC50 turned out to be 100 nM. Consider `O=C(Cc1cccc(OC(F)(F)F)c1)Nc1ccc(CCCCc2nnc(NC(=O)Cc3ccccn3)s2)nn1`, for which the IC50 in data set [2] is less than 50 nM.

In the case of `O=C(Cc1ccccc1)Nc1ccc(CCSc2nnc(NC(=O)Cc3ccccc3)s2)nn1`, in data set [3], the solubility result was “Insoluble”. The IC50 in data set [1] came to 30 nM.

`Nc1nnc(SCCc2nnc(NC(=O)Cc3ccccc3)s2)s1`: in data set [1], the IC50 amounted to 3000 nM. For the compound `CN(C)c1ccc(CC(=O)Nc2nnc(CCSc3nnc(NC(=O)Cc4ccccc4)s3)s2)cc1`, in data set [1], the IC50 came to 200 nM. In data set [4], `O=C(Cc1ccccc1)Nc1nnc([C@H]2CCC[C@H](c3nnc(NC(=O)Cc4ccccc4)s3)C2)s1` came in with an IC50 of less than 100 nM. Consider `O=C(Cc1ccccc1)Nc1nnc(CSCc2nnc(NC(=O)Cc3ccccc3)s2)s1`, for which the IC50 in data set [4] was more than 20000 nM; in data set [1] it was more than 100000 nM.

For `O=C(Cc1ccccc1)Nc1nnc([C@H]2CCC[C@H](c3nnc(NC(=O)Cc4ccccc4)s3)C2)s1` (racemic), the IC50 in data set [1] amounted to 280 nM.

As for `Nc1nnc(SCCc2ccc(NC(=O)Cc3ccccc3)nn2)s1`, in data set [1], the concentration for half-maximal inhibition (IC50) turned out to be 6800 nM.

For `O=C(Cc1cccc(OC(F)(F)F)c1)Nc1nnc(CCSc2nnc(NC(=O)Cc3ccccc3)s2)s1`, the half-maximal inhibitory concentration (IC50) in data set [1] was found to be 140 nM. Still for that read-out and setting: the figure for `Nc1nnc(CCSc2nnc(NC(=O)Cc3ccccc3)s2)s1` is 1600 nM; for `O=C(Cc1ccccn1)Nc1nnc(CCSc2nnc(NC(=O)Cc3ccccc3)s2)s1` it is 110 nM. On the same count and under the same terms, then `Nc1nnc(CCSc2ccc(NC(=O)Cc3ccccc3)nn2)s1`, with 14000 nM. As to `O=C(Cc1ccccc1)Nc1nnc(CCSc2nnc(NC(=O)Cc3ccccc3)s2)s1`, the Stabilty in data set [5] is listed as 87%. For the same compound, in data set [1], the IC50 came to 50 nM.
